Data reported in the supplement of paper PMC11451515.

What was measured:
Test in all cases: AUC of viability dose-response curve (% viability x log10 dose units); higher = less sensitive
Settings in all cases: 48 h
P12-Ichikawa = test system: P12-Ichikawa
How it was run: (§1)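 Area under the curve was integrated by trapezoidal rule from a log-logistic fit of normalised viability, with curves exceeding full viability scaled and quality-control failures removed. The fit had four parameters over log10 doses. Viability came from CellTiter-Glo One luminescence, normalised per plate to DMSO and cell-free wells, after leukemia cells adapted to each medium (500 or 1000 cells/well, 1536-well plates) were exposed to library compounds in DMSO for 48 h at 37°C. The 11 threefold doses ran from 47 μM to 0.79 nM.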

SEM cells = test system: SEM cells
How it was run: as §1

NOMO1 = test system: NOMO1
How it was run: as §1

[1] = RPMI 5 mM glucose + 10% dialyzed FBS

Row | SMILES | AUC of viability dose-response curve (P12-Ichikawa; HPLM + 10% dialyzed FBS) | AUC of viability dose-response curve (P12-Ichikawa; RPMI 5 mM glucose + 10% FBS) | AUC of viability dose-response curve (P12-Ichikawa; [1]) | AUC of viability dose-response curve (SEM cells; HPLM + 10% dialyzed FBS) | AUC of viability dose-response curve (SEM cells; RPMI 5 mM glucose + 10% FBS) | AUC of viability dose-response curve (SEM cells; [1]) | AUC of viability dose-response curve (NOMO1; HPLM + 10% dialyzed FBS) | AUC of viability dose-response curve (NOMO1; RPMI 5 mM glucose + 10% FBS) | AUC of viability dose-response curve (NOMO1; [1])
1 | CNC(=O)c1cc(COc2nnc(Nc3ccc(Cl)cc3)c3ccoc23)ccn1 | 440 | 458 | 440 | 452 | 446 | 436 | 449 | 446 | 452
2 | OCCN1CCN(CCCN2c3ccccc3Sc3ccc(C(F)(F)F)cc32)CC1 | 403 | 402 | 418 |  |  |  | 411 | 420 | 454
3 | CN1C(=O)\C(=C/C2=C1N=C(NC3CCOCC3)N=C2)OC4=C(F)C=C(F)C=C4 | 428 | 429 | 420 | 439 | 463 | 430 | 420 | 406 | 413
4 | CC(=O)O/N=C1/C(=C2\C(=O)Nc3cc(Br)ccc32)Nc2ccccc21 | 439 | 443 | 437 | 324 | 317 | 308 | 431 | 450 | 443
5 | CNC(=O)c1cc(Oc2ccc(NC(=O)Nc3ccc(Cl)c(C(F)(F)F)c3)c(F)c2)ccn1 | 422 | 422 | 427 | 296 | 314 | 275 | 444 | 438 | 440
6 | CN1CCC(=C2c3ccccc3CCc3sccc32)CC1 | 472 | 471 | 465 | 453 | 459 | 464 | 460 | 477 | 466
7 | CCNC(=O)c1noc(-c2cc(C(C)C)c(O)cc2O)c1-c1ccc(CN2CCOCC2)cc1 | 333 | 302 | 312 | 225 | 224 | 232 | 253 | 240 | 248
8 | CCC1=C2CN3C(=O)\C4=C(/C=C3/C2=NC5=CC=C(O)C=C15)[C@@](O)(CC)C(=O)OC4 | 109 | 102 | 105 | 158 | 137 | 140 | 226 | 211 | 218
9 | Cc1cccc(Nc2nc(N[C@@H]3CCCC[C@@H]3N)ncc2C(N)=O)c1 | 334 | 380 | 368 |  |  |  | 424 | 411 | 409
10 | CCOC\1=C(/C(=O)NC2=CC=C(OC3=C(Cl)C(=NC=C3)N)C(=C2)F)C(=O)N(\C=C1)C4=CC=C(F)C=C4 | 444 | 447 | 431 | 328 | 309 | 300 | 415 | 446 | 440
11 | NC(=O)Cc1cccc(C(=O)c2ccccc2)c1N | 468 | 456 | 455 | 433 | 404 | 428 | 461 | 435 | 436
12 | CC(C)(OCc1nn(Cc2ccccc2)c2ccccc12)C(=O)O | 473 | 459 | 427 | 475 | 471 | 477 | 460 | 442 | 467
13 | CC1(C)NC(=O)N(c2ccc([N+](=O)[O-])c(C(F)(F)F)c2)C1=O | 424 | 410 | 371 | 404 | 454 | 461 | 439 | 431 | 407
14 | COc1ccc(CC2SC(=O)NC2=O)cc1C(=O)NCc1ccc(C(F)(F)F)cc1 (centres undefined) | 430 | 396 | 361 | 381 | 439 | 393 | 416 | 415 | 427
15 | CCC[S+](=O)([O-])Nc1ccc(F)c(C(=O)c2c[nH]c3ncc(-c4ccc(Cl)cc4)cc23)c1F | 455 | 452 | 446 | 470 | 474 | 464 | 445 | 477 | 461
16 | NC(=O)[C@@H](CCC(F)(F)F)N(Cc1ccc(-c2ncon2)cc1F)[S+](=O)([O-])c1ccc(Cl)cc1 | 430 | 421 | 403 | 430 | 381 | 385 | 436 | 413 | 426
17 | N[C@@H](Cc1cc(I)c(Oc2cc(I)c(O)c(I)c2)c(I)c1)C(=O)O | 445 | 460 | 468 | 463 | 454 | 438 | 456 | 473 | 429
18 | O=C(O)CCCc1ccc(N(CCCl)CCCl)cc1 | 455 | 456 | 462 | 458 | 451 | 458 | 468 | 464 | 465
19 | CC1CCN(c2cc(N3CCN(C)CC3)ccc2NC(=O)c2cc(C#N)c[nH]2)CC1 | 450 | 453 | 453 | 456 | 444 | 451 | 457 | 463 | 454
20 | CCc1nc(C(N)=O)c(Nc2ccc(N3CCC(N4CCN(C)CC4)CC3)c(OC)c2)nc1NC1CCOCC1 | 438 | 436 | 434 | 291 | 285 | 277 | 389 | 410 | 363
21 | CC=CC1=C(C(=O)O)N2C(=O)[C@@H](NC(=O)[C@H](N)c3ccc(O)cc3)[C@H]2SC1.O | 415 | 416 | 429 | 395 | 460 | 447 | 370 | 342 | 376
22 | COC1=C(CC=C(C)C)C2=C(\C=C/C(=O)O2)C=C1 | 413 | 439 | 416 |  |  |  | 470 | 455 | 460
23 | CN1C(=O)C(=C/2N(C(=O)N(C3CC3)C(=O)C2=C1/NC4=CC=C(I)C=C4F)C5=CC=CC(=C5)NC(C)=O)\C | 354 | 340 | 355 | 325 | 323 | 318 | 249 | 255 | 255
24 | CC(=O)[C@H]1CC[C@H]2[C@@H]3C/C=C4/C[C@@H](O)CC[C@]4(C)[C@H]3CC[C@]12C | 462 | 461 | 463 | 455 | 470 | 460 | 463 | 472 | 462

Row | SMILES | AUC of viability dose-response curve (P12-Ichikawa; HPLM + 10% dialyzed FBS) | AUC of viability dose-response curve (P12-Ichikawa; RPMI 5 mM glucose + 10% FBS) | AUC of viability dose-response curve (P12-Ichikawa; [1]) | AUC of viability dose-response curve (SEM cells; HPLM + 10% dialyzed FBS) | AUC of viability dose-response curve (SEM cells; RPMI 5 mM glucose + 10% FBS) | AUC of viability dose-response curve (SEM cells; [1]) | AUC of viability dose-response curve (NOMO1; HPLM + 10% dialyzed FBS) | AUC of viability dose-response curve (NOMO1; RPMI 5 mM glucose + 10% FBS) | AUC of viability dose-response curve (NOMO1; [1])
25 | CC[C@@H](C)[C@H](NC(=O)[C@H](CC1CCCCC1)NC(=O)c1ccno1)C(=O)N1CCC2(CCc3ccccc32)CC1 | 418 | 394 | 388 | 382 | 381 | 449 | 399 | 385 | 385
26 | NC/1=N/C(=O)C2=C([NH]C=C2CCC3=CC=C(C=C3)C(=O)N[C@@H](CCC(O)=O)C(O)=O)N1 | 372 | 408 | 409 | 355 | 444 | 371 | 358 | 446 | 398
27 | CCN(CCO)CCCC(C)Nc1ccnc2cc(Cl)ccc12 (centres undefined) | 392 | 400 | 384 |  |  |  | 417 | 429 | 459
28 | COc1cc([C@@H]2c3cc4c(cc3[C@H](O)[C@H]3COC(=O)[C@H]23)OCO4)cc(OC)c1OC | 69.5 | 70.5 | 75.2 |  |  |  | 170 | 126 | 138
29 | CCCCCCCN(CC)CCCC(O)c1ccc(NS(C)(=O)=O)cc1.CCCCCCCN(CC)CCCC(O)c1ccc(NS(C)(=O)=O)cc1.O=C(O)/C=C/C(=O)O (centres undefined) | 460 | 457 | 461 | 446 | 421 | 443 | 471 | 463 | 464
30 | CCCC[N+]1(C)[C@@H]2CC(OC(=O)[C@H](CO)c3ccccc3)C[C@H]1[C@@H]1O[C@@H]12 (some centres undefined) | 452 | 450 | 460 | 462 | 471 | 475 | 420 | 431 | 450
31 | Cc1ccc([S+](=O)([O-])NC(=O)NN2CC3CCCC3C2)cc1 (centres undefined) | 388 | 378 | 371 | 369 | 334 | 337 | 433 | 436 | 439
32 | CCN(CC)CCNC(=O)c1ccc2nc(-c3ccccc3)c(-c3ccc(CN4CCC(n5c(=O)[nH]c6ccccc65)CC4)cc3)nc2c1 | 355 | 380 | 358 | 246 | 221 | 243 | 354 | 400 | 399
33 | Cc1n[nH]c(C)c1Cc1sc2c(c1C(=O)N1C[C@H](O)CO1)c(=O)n(C)c(=O)n2CC(C)C | 416 | 410 | 417 | 366 | 408 | 444 | 456 | 476 | 468
34 | COc1c(C)c2c(c(O)c1C/C=C(\C)CCC(=O)OCCN1CCOCC1)C(=O)OC2 | 406 | 393 | 400 | 405 | 396 | 427 | 402 | 412 | 408
35 | Clc1ccc(C(Cn2ccnc2)OCc2ccc(Sc3ccccc3)cc2)c(Cl)c1 (centres undefined) | 453 | 453 | 455 | 416 | 445 | 438 | 441 | 450 | 453
36 | Cc1ccnc(N[S+](=O)([O-])c2ccc(NC(=O)Nc3ccc([S+](=O)([O-])Nc4nccc(C)n4)cc3)cc2)n1 | 274 | 279 | 270 | 236 | 180 | 210 |  |  | 
37 | O=C(N[C@H]1CN2CCC1CC2)c1ccc(Cl)cc1 | 467 | 469 | 466 | 457 | 439 | 468 | 462 | 470 | 469
38 | COc1ccccc1N1CCN(CC(O)COc2cccc3ccccc23)CC1 (centres undefined) | 467 | 439 | 441 | 473 | 455 | 449 | 450 | 448 | 431
39 | O=C(Nc1ccncc1)C(=O)c1cn(Cc2ccc(Cl)cc2)c2ccccc12 | 281 | 275 | 288 | 249 | 237 | 247 | 306 | 315 | 311
40 | Cc1ccc(Nc2nccc(N(C)c3ccc4c(C)n(C)nc4c3)n2)cc1[S+](N)(=O)[O-] | 450 | 444 | 450 | 400 | 371 | 388 | 462 | 464 | 476
41 | CN1CCN(CC1)C/2=N/C3=CC=CC=C3NC4=C2C=C(C)S4 | 465 | 458 | 458 | 467 | 454 | 473 |  |  | 
42 | CON(C)C(=O)N1\N=C(/S[C@]1(CCCN)C2=CC=CC=C2)C3=CC(=CC=C3F)F |  |  |  | 130 | 103 | 105 |  |  | 
43 | CCCCc1ccc(N[S+](=O)([O-])c2ccc(C)c(C(=O)N3CCN(c4cccc(C)c4C)CC3)c2)cc1 | 468 | 468 | 464 |  |  |  | 457 | 435 | 473
44 | COc1cc2nc(N3CCN(C(=O)c4ccco4)CC3)nc(N)c2cc1OC |  |  |  | 332 | 383 | 377 | 411 | 384 | 392
45 | O=P1(NCCCl)OCCCN1CCCl (centres undefined) | 424 | 402 | 391 |  |  |  |  |  | 
46 | O=C1N\N=C(\C[C@@H]2CCN(C2)C(=O)C3CC3)N1C4=CC=C(C=C4)C5=CC=C6OC=CC6=C5 | 400 | 376 | 405 |  |  |  | 448 | 397 | 394
47 | CN1\C(=C(O)/C2=C(C=C(Cl)S2)[S+]1([O-])=O)C(=O)NC3=NC=CC=C3 | 438 | 472 | 458 |  |  |  | 459 | 464 | 477
48 | O=C(O)c1nn(Cc2ccc(Cl)cc2Cl)c2ccccc12 | 423 | 412 | 379 | 387 | 400 | 375 |  |  | 
